14 compounds from patent publication US11999727B2 (Tango Therapeutics, Inc., priority 2020, dated 2024) can be followed below.

Test [1] relates to HAP1 MTAP-intact cell line. Description: SDMA in-cell western assay, HAP1 MTAP-intact. It counts as cell-based. The settings on record: Homo sapiens, HAP1, SDMA in-cell western, HAP1 MTAP-intact; read-out: MTAP HAP1 intact IC50. The method, boiled down:
(§1)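 Isogenic HAP1 pair: the MTAP-intact line expresses endogenous MTAP, and the deleted line is MTAP-null. Symmetric dimethylarginine was detected by in-cell western and IC50 values derived for each line.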

Test [2] concerns the target T1, PRMT5 (Homo sapiens, UniProt O14744).
T1 construct: purchased Viva (custom protein)
Nature of the test: PRMT5 biochemical IC50 assay with no cofactor. To be noted: PRMT5, no cofactor; read-out: No Cofactor/ rel IC50. An excerpt: Table 1 indicates IC50 values (μM) against PRMT5 for exemplary compounds in the presence of SAM as cofactor, with no cofactor, and with MTA as cofactor, respectively (columns 4-6). […] Ki values can be calculated from the IC50 values as described in the Examples section. As detailed in the Examples section, for the assay performed in the presence of SAM, IC50=Ki×1.5 (Ki=IC50/1.5).

Test [3] relates to HAP1 MTAP-deleted cell line. Nature of the test: SDMA in-cell western assay, HAP1 MTAP-deleted. The settings on record: for IC50: Homo sapiens, HAP1, SDMA in-cell western, HAP1 MTAP-deleted, read-out: HAP 1 MTAP deleted IC50; for MTAP intact/deleted ratio: IC50 ratio HAP1 MTAP-intact / HAP1 MTAP-deleted, SDMA in-cell western. The format is cell-based. The method, boiled down: as §1

Test [4] deals with HAP1 MTAP-deleted cell line. Description: Viability assay, MTAP-deleted cell line. The settings on record: Homo sapiens, HAP1, viability, HAP1 MTAP-deleted cell line; read-out: HAP1 MTAP deleted viability. It counts as cell-based. The source says: Table 1 additionally indicates IC50 values in a viability assay for the MTAP-deleted cell line (column 10), indicating the effect of treatment with compound on cell survival.

Test [5] concerns the target T1, PRMT5. Nature of the test: PRMT5 biochemical IC50 assay with MTA as cofactor. To be noted: PRMT5, MTA as cofactor; read-out: MTA IC50.
The target in test [6] is T1, PRMT5. Description: PRMT5 biochemical IC50 assay with SAM as cofactor. The settings on record: PRMT5, SAM as cofactor; read-out: SAM IC50.

Bounds are passed on as bounds.

T1 sequence (O14744 whole entry): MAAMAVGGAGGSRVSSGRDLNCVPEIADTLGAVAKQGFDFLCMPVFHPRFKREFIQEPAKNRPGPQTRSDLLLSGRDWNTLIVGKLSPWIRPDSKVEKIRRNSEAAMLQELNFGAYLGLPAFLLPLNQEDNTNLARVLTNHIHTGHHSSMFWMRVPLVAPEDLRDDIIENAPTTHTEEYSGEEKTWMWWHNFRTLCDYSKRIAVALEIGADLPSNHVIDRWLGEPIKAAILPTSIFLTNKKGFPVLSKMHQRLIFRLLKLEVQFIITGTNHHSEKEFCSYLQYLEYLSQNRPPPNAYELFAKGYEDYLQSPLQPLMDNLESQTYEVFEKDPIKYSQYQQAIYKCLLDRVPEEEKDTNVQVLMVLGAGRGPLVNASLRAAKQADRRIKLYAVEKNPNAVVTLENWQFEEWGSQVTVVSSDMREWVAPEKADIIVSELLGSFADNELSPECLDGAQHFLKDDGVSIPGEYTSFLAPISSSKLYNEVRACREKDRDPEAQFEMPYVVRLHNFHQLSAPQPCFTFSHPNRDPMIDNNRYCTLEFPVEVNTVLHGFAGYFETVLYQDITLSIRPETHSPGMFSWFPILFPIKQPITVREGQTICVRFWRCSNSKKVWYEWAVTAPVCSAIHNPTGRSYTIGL
T1 sequence (Q9BQA1 whole entry partner): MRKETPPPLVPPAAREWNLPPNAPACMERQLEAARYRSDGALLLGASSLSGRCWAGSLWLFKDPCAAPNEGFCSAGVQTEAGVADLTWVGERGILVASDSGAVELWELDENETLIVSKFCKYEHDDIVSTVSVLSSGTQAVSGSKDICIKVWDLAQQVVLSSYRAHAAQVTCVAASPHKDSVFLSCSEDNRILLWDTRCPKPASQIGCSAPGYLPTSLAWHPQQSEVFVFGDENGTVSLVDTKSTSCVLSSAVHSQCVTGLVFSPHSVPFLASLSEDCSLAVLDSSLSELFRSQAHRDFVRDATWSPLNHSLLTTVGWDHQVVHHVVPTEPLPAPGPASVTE

With `CCc1cc(NC(=O)C(=O)N2C[C@@H](C)CC[C@@H]2c2ccc3sc(C4(CN(C)C)CC4)nc3c2)cnc1N` [Compound 1347, N-(6-amino-5-ethylpyridin-3-yl)-2-((2R,5S)-2-(2-(1-((dimethylamino)methyl)cyclopropyl)benzo[d]thiazol-5-yl)-5-methylpiperidin-1-yl)-2-oxoacetamide], the IC50 was below 100 nM in test [1]; below 50 nM on PRMT5 [2]; below 100 nM in test [3]; below 1000 nM in test [4]; below 50 nM at PRMT5 [5]; 50 to 500 nM on PRMT5 [6]. Also, in test [3], the “MTAP intact/deleted ratio” value is on record as “A (an IC50 ratio greater than or equal to 10 fold)”.
For the compound `CCc1cc(NC(=O)C(=O)N2C[C@@H](C)CC[C@@H]2c2cccc(OCC3CCN(C)CC3)c2)cnc1N` [Compound 1348, N-(6-amino-5-ethylpyridin-3-yl)-2-((2R,5S)-5-methyl-2-(3-((1-methylpiperidin-4-yl)methoxy)phenyl)piperidin-1-yl)-2-oxoacetamide], the IC50 was below 100 nM in test [1]; below 50 nM on PRMT5 [2]; below 100 nM in test [3]; below 1000 nM in test [4]; below 50 nM at PRMT5 [5]; below 50 nM at PRMT5 [6]. In addition, in test [3], the “MTAP intact/deleted ratio” value is given as “A (an IC50 ratio greater than or equal to 10 fold)”.
Consider `COc1ncc(NC(=O)C(=O)N2C[C@@H](C)CC[C@@H]2c2cccc(OCCN(C)C)c2)cc1C(N)=O` [Compound 1352, 5-(2-((2R,5S)-2-(3-(2-(dimethylamino)ethoxy)phenyl)-5-methylpiperidin-1-yl)-2-oxoacetamido)-2-methoxynicotinamide], for which the IC50 in test [1] was above 1000 nM; at PRMT5 [2], below 50 nM; in test [3], below 100 nM; in test [4] it was below 1000 nM; at PRMT5 [5], below 50 nM; on PRMT5 [6] it was below 50 nM.
For `C[C@H]1CC[C@H](c2ccc3sc(CN(C)C)nc3c2)N(C(=O)C(=O)Nc2cnc(N)c(C3CC3)c2)C1` [Compound 1354, N-(6-Amino-5-cyclopropyl-3-pyridyl)-2-[(2R,5S)-2-[2-[(dimethylamino)methyl]-1,3-benzothiazol-5-yl]-5-methyl-1-piperidyl]-2-oxo-acetamide], the IC50 in test [1] is below 100 nM; at PRMT5 [2], below 50 nM; in test [3], below 100 nM; in test [4] it was below 1000 nM; on PRMT5 [5] it was below 50 nM; at PRMT5 [6], 50 to 500 nM. The “MTAP intact/deleted ratio” value in test [3] is “A (an IC50 ratio greater than or equal to 10 fold)”.
Regarding `COc1ncc(NC(=O)C(=O)N2C[C@@H](C)CC[C@@H]2c2ccc3sc([C@H]4CCCN(C)C4)nc3c2)cc1C(N)=O` [Compound 1359, 2-methoxy-5-(2-((2R,5S)-5-methyl-2-(2-((S)-1-methylpiperidin-3-yl)benzo[d]thiazol-5-yl)piperidin-1-yl)-2-oxoacetamido)nicotinamide], the IC50 in test [1] is below 100 nM; on PRMT5 [2] it was below 50 nM; in test [3] it was below 100 nM; in test [4], below 1000 nM; on PRMT5 [5], below 50 nM; at PRMT5 [6], below 50 nM. Further, the “MTAP intact/deleted ratio” value in test [3] was “A (an IC50 ratio greater than or equal to 10 fold)”.
`CCc1cc(NC(=O)C(=O)N2C[C@@H](C)CC[C@@H]2c2cccc(OC[C@@H]3CCCN3C)c2)cnc1N` [Compound 1362, N-(6-amino-5-ethylpyridin-3-yl)-2-((2R,5S)-5-methyl-2-(3-((1-methylpyrrolidin-2-yl)methoxy)phenyl)piperidin-1-yl)-2-oxoacetamide]: the IC50 in test [1] is 100 to 1000 nM; at PRMT5 [2], below 50 nM; in test [3], below 100 nM; in test [4] it was below 1000 nM; on PRMT5 [5] it was below 50 nM; on PRMT5 [6], 50 to 500 nM. The “MTAP intact/deleted ratio” value in test [3] is given as “A (an IC50 ratio greater than or equal to 10 fold)”.
On to `CCc1cc(NC(=O)C(=O)N2C[C@@H](C)CC[C@@H]2c2cccc(C3CCN(C)CC3)c2)cnc1N` [Compound 1363, N-(6-Amino-5-ethyl-3-pyridyl)-2-oxo-2-[(2R,5S)-5-methyl-2-[3-(1-methyl-4-piperidyl)phenyl]-1-piperidyl]acetamide], for which the IC50 in test [1] was 100 to 1000 nM; on PRMT5 [2] it was below 50 nM; in test [3], below 100 nM; in test [4], below 1000 nM; on PRMT5 [5] it was below 50 nM; on PRMT5 [6], below 50 nM. Also, the “MTAP intact/deleted ratio” value in test [3] is “A (an IC50 ratio greater than or equal to 10 fold)”.
Regarding `CCc1cc(NC(=O)C(=O)N2C[C@@H](C)CC[C@@H]2c2ccc3ccc(C4CCN(C)CC4)nc3c2)cnc1N` [Compound 1365, N-(6-amino-5-ethyl-3-pyridyl)-2-oxo-2-[(2R,5S)-5-methyl-2-[2-(1-methyl-4-piperidyl)-7-quinolyl]-1-piperidyl]acetamide], the IC50 in test [1] is below 100 nM; on PRMT5 [2] it was below 50 nM; in test [3], below 100 nM; in test [4], below 1000 nM; at PRMT5 [5], below 50 nM; on PRMT5 [6] it was 50 to 500 nM. In test [3], the “MTAP intact/deleted ratio” value is “A (an IC50 ratio greater than or equal to 10 fold)”.
Regarding `CCc1cc(NC(=O)C(=O)N2C[C@@H](C)CC[C@@H]2c2ccc3sc([C@@H]4[C@@H]5CN(C)C[C@@H]54)nc3c2)cnc1N` [Compound 1366, N-(6-amino-5-ethylpyridin-3-yl)-2-((2R,5S)-5-methyl-2-(2-((1R,5S,6s)-3-methyl-3-azabicyclo[3.1.0]hexan-6-yl)benzo[d]thiazol-5-yl)piperidin-1-yl)-2-oxoacetamide], the IC50 in test [1] was below 100 nM; on PRMT5 [2] it was below 50 nM; in test [3], below 100 nM; in test [4] it was below 1000 nM; at PRMT5 [5] it was below 50 nM; on PRMT5 [6], below 50 nM. Moreover, in test [3], the “MTAP intact/deleted ratio” value is reported as “A (an IC50 ratio greater than or equal to 10 fold)”.
For `CCc1cc(NC(=O)C(=O)N2C[C@@H](C)CC[C@@H]2c2cccc(N3CCN(C)CC3)c2)cnc1N` [Compound 1367, N-(6-amino-5-ethylpyridin-3-yl)-2-((2R,5S)-5-methyl-2-(3-(4-methylpiperazin-1-yl)phenyl)piperidin-1-yl)-2-oxoacetamide], the IC50 was 100 to 1000 nM in test [1]; below 50 nM on PRMT5 [2]; below 100 nM in test [3]; below 1000 nM in test [4]; below 50 nM at PRMT5 [5]; below 50 nM on PRMT5 [6]. The “MTAP intact/deleted ratio” value in test [3] is “A (an IC50 ratio greater than or equal to 10 fold)”.
Regarding `CCc1cc(NC(=O)C(=O)N2C[C@@H](C)CC[C@@H]2c2ccc3cc(C)c(C4CCN(C)CC4)nc3c2)cnc1N` [Compound 1368, N-(6-amino-5-ethyl-3-pyridyl)-2-oxo-2-[(2R,5S)-5-methyl-2-[3-methyl-2-(1-methyl-4-piperidyl)-7-quinolyl]-1-piperidyl]acetamide], the IC50 in test [1] is below 100 nM; at PRMT5 [2] it was below 50 nM; in test [3] it was below 100 nM; in test [4], below 1000 nM; on PRMT5 [5], below 50 nM; at PRMT5 [6], 50 to 500 nM. The “MTAP intact/deleted ratio” value in test [3] is listed as “A (an IC50 ratio greater than or equal to 10 fold)”.
On to `CCc1cc(NC(=O)C(=O)N2C[C@@H](C)CC[C@@H]2c2ccc3sc(C45CC(C4)N(C)C5)nc3c2)cnc1N` [Compound 1372], for which the IC50 in test [1] is below 100 nM; on PRMT5 [2], below 50 nM; in test [3], below 100 nM; in test [4], below 1000 nM; at PRMT5 [5], below 50 nM; on PRMT5 [6], below 50 nM. Further, the “MTAP intact/deleted ratio” value in test [3] was “A (an IC50 ratio greater than or equal to 10 fold)”.
Consider `Cc1cc(NC(=O)C(=O)N2C[C@@H](C)CC[C@@H]2c2ccc3sc(C4CCN(CC(F)F)CC4)nc3c2)cnc1N` [Compound 1377, N-(6-amino-5-methylpyridin-3-yl)-2-((2R,5S)-2-(2-(1-(2,2-difluoroethyl)piperidin-4-yl)benzo[d]thiazol-5-yl)-5-methylpiperidin-1-yl)-2-oxoacetamide], for which the IC50 is 100 to 1000 nM in test [1]; below 50 nM on PRMT5 [2]; below 100 nM in test [3]; below 1000 nM in test [4]; below 50 nM at PRMT5 [5]; 50 to 500 nM on PRMT5 [6]. The “MTAP intact/deleted ratio” value in test [3] was “A (an IC50 ratio greater than or equal to 10 fold)”.
As to `C[C@H]1CC[C@H](c2ccc3sc(CCN4CCCC4)nc3c2)N(C(=O)C(=O)Nc2cnc(N)c(C3COC3)c2)C1` [Compound 1379, N-(6-amino-5-(oxetan-3-yl)pyridin-3-yl)-2-((2R,5S)-5-methyl-2-(2-(2-(pyrrolidin-1-yl)ethyl)benzo[d]thiazol-5-yl)piperidin-1-yl)-2-oxoacetamide], the IC50 in test [1] is below 100 nM; at PRMT5 [2], 50 to 500 nM; in test [3], below 100 nM; in test [4], below 1000 nM; at PRMT5 [5], below 50 nM; on PRMT5 [6], 50 to 500 nM. In test [3], the “MTAP intact/deleted ratio” value is “A (an IC50 ratio greater than or equal to 10 fold)”.
